Source: patent US20050069947A1, “Antibodies specific for nanotubes and related methods and compositions” (priority 2001, published 2005)

Experiments:
[1] = system: anti-fullerene antibodies; test: ELISA inhibition of antibody binding to 1-RSA; set-up: species or system mice; conditions: for reactivity with polyclonal antibodies raised to C60: method not stated at the place; for inhibition of antibody binding to 1-RSA (ELISA inhibition): serum of mice immunized with 1-TG, plates coated with 1-RSA
Experimental: After a total of three immunizations at 3-week intervals, confirmation of an immune response was determined by direct ELISA in which polystyrene plates (Corning) were coated with the 1-RSA conjugate (0.5 mg/ml in 0.1 M NaHCO3, pH 9), and binding of preimmune and immune sera were determined by standard procedures. Development was with horseradish peroxidase-labeled goat anti-mouse IgG (Sigma), which tested negative for crossreaction with an IgM preparation. The substrate used was o-phenylenediamine.
(§1) Specificity of the response was determined by two procedures: double diffusion in agar (22) and competitive inhibition, as determined by ELISA using RSA and BSA conjugates of the fullerenes, as well as the oligo lysine derivatives. The fullerenes themselves were not soluble enough in aqueous solutions.
The adenosine conjugate had been synthesized using the same strategy used for the fullerenes, i.e., linkage to the epsilon amino groups of the lysines via an N-hydroxysuccinimide ester derivative.
After a total of 3 immunizations at 3 week intervals, confirmation of an immune response was determined by direct ELISA in which polystyrene plates (Corning) were coated with 1-RSA conjugate (0.5 mg/ml in O.1 N NaHCO3, pH 9) and binding of preimmune and immune sera determined by standard procedures. Development was with horseradish peroxide-labeled goat anti-mouse IgG (Sigma, St. Louis, MO) which tested negative for cross reaction with an IgM preparation. The substrate used was o-phenylenediamine.
(§2) Specificity of the response was determined by two procedures: double diffusion in agar and competitive inhibition, as determined by ELISA using RSA and BSA conjugates of the fullerenes, as well as the oligo lysine derivatives. The fullerenes themselves were not soluble enough in aqueous solutions.

[2] = acute and subchronic topical applications; cited from earlier work
[3] = Gamma-camera imaging biodistribution study; format: in vivo, Sprague-Dawley rats
Experimental: The biodistribution in mice of hydroxylated lanthanide-C82 encapsulates is under current investigation. The results presented here are regarded as preliminary as the sample is still small. Studies continue under a NIH Phase I grant. The neutron irradiated samples, along with a […] control sample, were used to perform a γ-camera imaging study on four 300 g Sprague-Dawley rats. Two rats were injected intraperitoneally (IP) with 54 and 18 μCi of ^166Ho activity from samples containing irradiated Ho-metallofullerois. Two control studies were performed by […] of approximately 660 μCi of ^166Ho^3+ in a 1% sodium citrate buffer. The anesthetized rats were scanned side-by-side on a single stage with a γ-camera starting 1 hour after injection and periodically thereafter over the ensuing 48 hours.

[4] = system: anti-fullerene antibodies; test: Double diffusion in agar; format: binding, mice
Experimental: as §1, §2

## c12c3c4c5c1c1c6c7c2c2c8c3c3c9c4c4c%10c5c5c1c1c6c6c%11c%12c%13c%14c%15c%16c%17c%14c%14c%18c%13c%11c1c1c5c%10c5c(c%14c%10c%17c%11c%13c%16c%14c%16c%15c%12c%12c%16c(c2c7c%126)c2c8c3c(c%13c%142)c2c9c4c5c%10c%112)c%181 [Compound C70]
[1]
  reactivity with polyclonal antibodies raised to C60: non-reactive
[1]; listed as C70 fullerene
  reactivity with polyclonal antibodies raised to C60: crossreacted
[2]
  carcinogenic effects: lack of carcinogenic effects

## [166Ho+3] [^166Ho^3−]
[3]; IP, commencing as soon as 1 hour post-injection
  urinary clearance: rapid
[3]; after 24 hours
  ^166Ho activity excreted: essentially all

## RSA: rabbit serum albumin, control
[1]
  inhibition of antibody binding to 1-RSA (ELISA inhibition): No inhibition

## TG: unsubstituted bovine thyroglobulin, carrier protein
[1]
  inhibition of antibody binding to 1-RSA (ELISA inhibition): No inhibition
[4]; TG solution diluted 5-fold
  precipitation in double diffusion in agar: a line of precipitation was seen
[4]; serum of mice immunized with 1-TG
  precipitation in double diffusion in agar: no visible precipitate
